This note sets out measurements from article PMC11866022, “Long-Chain Cyclic Arylguanidines as Multifunctional Serotonin Receptor Ligands with Antiproliferative Activity” (ACS Omega, 2025).

For one series, the system named is U87MG glioblastoma cells. Description: Antiproliferative activity (MTS), U87MG. The following applies: Homo sapiens, U-87 MG; MTS assay. In kind it is cell-based, human. The method, then: (§1) These cell lines were characterized by different mutation profiles, the main one being the variable status of the p53 protein. In detail, U87MG cells have a wild-type p53 protein, while astrocytoma and the rest of GBM cells harbor mutated p53 protein. Additional assays were performed on MCF7 breast cancer and AsPC-1 pancreatic cancer cells. The wide range of tested lines was aimed at screening the anticancer potential of the tested compounds. The first represents one of the most common and the second one of the most aggressive cancers in the world. Comparing the activity of compounds on GBM cells to other types of cancer may reveal their selectivity and usefulness in targeted therapies. The cytotoxicity of the compounds on normal human astrocytes (NHA) and Feline catus astrocyte (PG-4) was determined. Tests on normal lines serve to verify the potential toxicity of the tested compounds on healthy cells. Due to the targeting of CNS tumors, astrocytes were selected as normal lines.
(§2) The detailed procedure is presented in previous publications.[53] […] Cells were cultured in appropriate media, supplemented with FBS, antibiotics, and other supplements, and incubated at 37 °C with 5% CO2. […] Cell viability was assessed using the MTS assay, and the inhibitory concentration (IC50) was calculated using GraphPad Prism 8.0. Each compound was tested in triplicate across multiple experiments.
Supplementary materials - Biological research
B) U87MG glioblastoma multiforme line.
and U87MG glioblastoma multiforme line for C) PP 3; D) PP 6; E) PP 8; F) PP 10; G) PP 11; H) PP
Background: Tetrazolium dyes change colour on reduction, which living cells bring about.

For the next series, the system named is MCF7 breast cancer cells. Put plainly: Antiproliferative activity (MTS), MCF7. In kind it is cell-based, human. Particulars: Homo sapiens, MCF7; MTS assay, 72 h. As for the experimental part:
as §1, §2

The target of another series is T1, 5-HT1A (Homo sapiens, UniProt P08908).
T1 construct: expressed in transfected cells; host or cells: HEK293
T1 sequence (P08908 1-422): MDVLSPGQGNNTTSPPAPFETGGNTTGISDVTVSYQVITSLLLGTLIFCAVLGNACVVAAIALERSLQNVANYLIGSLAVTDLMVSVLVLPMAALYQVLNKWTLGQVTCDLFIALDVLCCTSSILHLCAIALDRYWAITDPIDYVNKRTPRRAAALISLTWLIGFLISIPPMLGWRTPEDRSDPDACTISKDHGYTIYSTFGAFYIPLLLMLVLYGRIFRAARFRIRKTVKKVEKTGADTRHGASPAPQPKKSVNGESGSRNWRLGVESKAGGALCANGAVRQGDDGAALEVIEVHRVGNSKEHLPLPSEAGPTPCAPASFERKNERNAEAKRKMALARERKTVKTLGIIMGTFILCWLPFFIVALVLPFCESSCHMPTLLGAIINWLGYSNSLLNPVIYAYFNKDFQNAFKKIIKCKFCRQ
Description: Functional cAMP assay (LANCE Ultra), 5-HT1A. It is filed as cell-based. Particulars: for EC50: agonist mode; for function at 5-HT1A: in words. The method, then: Their functional activity was also evaluated by assessing their ability to inhibit agonist-induced cAMP production in HEK293 cells (Table 3). Extended radioisotope tests were aimed at detecting potential affinity for other aminergic receptors, whose role in cancer treatment may be important. Functions were tested for all receptors. The essence of functional tests results from the fact that serotonin stimulates tumor progression. Therefore, the ligand should have the potential to reduce its concentration, i.e., act as an antagonist.[39]
The detailed procedure is presented in previous publications.[53] The functional activity of the compounds was assessed using the LANCE Ultra cAMP detection kit (PerkinElmer). […] For other receptors (5-HT7R, 5-HT1AR, and 5-HT6R), 5-CT was used at 10, 100, and 1000 nM, respectively. Each compound was tested in triplicate across eight concentrations. The inhibitory constant (Kb) for each antagonist was calculated using the Cheng–Prusoff equation.
On the technique in general: Cyclic AMP is a second messenger, typically raised through Gs and lowered through Gi signalling.

Another series has as its target T2, 5-HT6 (Homo sapiens, UniProt P50406).
T2 construct: expressed in transfected cells; host or cells: HEK293
Description: Functional cAMP assay (LANCE Ultra), 5-HT6. It is filed as cell-based. The following applies: Table 3, unit inferred, agonist mode.

Series [1] has as its system Feline catus astrocyte (PG-4). Description: Cytotoxicity, PG-4 astrocytes. It is filed as cell-based. The following applies: Felis catus; normal astrocyte line. The method, then:
as §1, with “The chosen group of ligands was further examined for their ability to inhibit proliferation across multiple cancer cell lines related to the CNS system (1321N1, U87MG, LN-229, and U-251). These” for “These”

The target in another series is T3, CYP2D6 (Homo sapiens, UniProt P10635).
T3 construct: purchased Promega
T3 sequence (P10635 whole entry): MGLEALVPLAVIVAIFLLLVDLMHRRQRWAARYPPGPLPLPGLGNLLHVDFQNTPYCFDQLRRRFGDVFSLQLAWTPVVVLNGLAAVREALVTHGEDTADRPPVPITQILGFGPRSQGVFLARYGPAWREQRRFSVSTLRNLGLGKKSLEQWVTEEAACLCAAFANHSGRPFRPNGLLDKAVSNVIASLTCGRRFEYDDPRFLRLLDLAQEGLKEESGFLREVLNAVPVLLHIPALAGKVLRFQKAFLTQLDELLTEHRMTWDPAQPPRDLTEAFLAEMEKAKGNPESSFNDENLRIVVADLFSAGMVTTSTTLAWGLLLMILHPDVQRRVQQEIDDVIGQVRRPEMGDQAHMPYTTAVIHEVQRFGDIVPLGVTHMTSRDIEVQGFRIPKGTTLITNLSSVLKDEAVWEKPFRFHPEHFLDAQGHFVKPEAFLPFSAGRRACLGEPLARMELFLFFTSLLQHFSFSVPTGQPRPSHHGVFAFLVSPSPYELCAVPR
Put plainly: P450-Glo assay, CYP2D6. It is filed as in vitro ADME. The text has this:
In order to evaluate excretion, we examined the effect on the activity of two cytochrome P-450 isoforms. Inhibition of their activity may lead to the occurrence of drug–drug interactions.

Another series concerns Danio rerio. Particulars: in vivo. As for the experimental part: Two compounds, PP 10 and PP 15, were tested for cardiotoxicity in the Danio rerio experimental model (OECD 236 test). […]. To assess potential neurotoxic effects, locomotor activity was examined in the Danio rerio model. Zebrafish larvae’s response to light and dark transitions serves as a useful method for detecting neurotoxicity. […] In our experiment, we switched from light to dark conditions, as zebrafish larvae are known to avoid light and seek darker areas. This behavior helps them evade predators and maintain ideal environmental conditions. […]
Figure 4 A: Toxicity of PP 10 and PP 15in vivo in the Danio reiro embryo toxicity test. […] Cardiotoxicity of compounds B: PP 10 and C: PP 15 was evaluated by measuring the heart rate (beats per minute) in 5-dpf Danio rerio larvae, maintained in the E3 fish embryo growth medium. Statistical analysis was performed using GraphPad Prism 10.0.0, with one-way ANOVA followed by Dunnett’s comparison test (*p < 0.05, compared to the negative control E3). […] | The toxicity of compounds was evaluated using two tests: the fish embryo toxicity (FET) test and neurotoxicity assessment.[53] […] Acute toxicity was assessed by monitoring signs such as coagulation of fertilized eggs, somite formation absence, tailbud separation, and lack of heartbeat. The LD50 value was calculated, and cardiovascular effects were monitored through heartbeat observations.

Series [2] relates to HSA and AGP in a ratio 24:1. Put plainly: TRANSILXL PPB plasma protein binding assay. Particulars: Figures S149, S150.

The structures appear in SMILES notation.

T2 sequence (P50406 whole entry): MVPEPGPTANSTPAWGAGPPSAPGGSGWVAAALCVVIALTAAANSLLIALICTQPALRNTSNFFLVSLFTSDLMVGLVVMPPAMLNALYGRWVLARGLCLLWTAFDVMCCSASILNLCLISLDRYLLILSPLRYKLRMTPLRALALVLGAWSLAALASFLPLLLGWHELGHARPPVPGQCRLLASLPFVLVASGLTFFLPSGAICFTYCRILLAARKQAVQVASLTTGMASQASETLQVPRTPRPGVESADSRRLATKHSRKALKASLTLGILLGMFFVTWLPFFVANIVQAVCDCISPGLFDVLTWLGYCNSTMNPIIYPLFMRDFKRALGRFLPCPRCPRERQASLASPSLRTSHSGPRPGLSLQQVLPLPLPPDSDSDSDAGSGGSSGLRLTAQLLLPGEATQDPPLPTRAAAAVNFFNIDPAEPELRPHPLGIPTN

Broadly, the IC50 is the concentration that gives 50% inhibition. The low end stands for greater potency in that assay, the high end for weaker potency in that assay. A word on the EC50: it is the midpoint of the concentration-response curve. A higher EC50 goes with weaker potency. As to `O=S(=O)(c1cccc2ccccc12)N1CCN(CCNC2=Nc3ccccc3CN2)CC1` [PP 6, N-{2-[4-(Naphthalene-1-sulfonyl)piperazin-1-yl]ethyl}-3,4-dihydroquinazolin-2-amine], the 50% inhibitory concentration (IC50) in the series on U87MG glioblastoma cells and in the series on MCF7 breast cancer cells was more than 25 µM throughout. Also, the EC50 at 5-HT1A (Table 3, unit inferred, cAMP) stood at 0.375 µM; at 5-HT6 it was 0.367 µM. Besides, the “function at 5-HT1A” value on 5-HT1A was “agonist”.
Broadly, the Kb is the equilibrium dissociation constant of an antagonist, usually derived from a functional assay. Regarding `CC1NC(NCCCCCCNS(=O)(=O)c2cccc3ccccc23)=Nc2ccccc21` (centres unmarked) [PP 10, N-{6-[(4-Methyl-3,4-dihydroquinazolin-2-yl)amino]hexyl}naphthalene-1-sulfonamide], the half-inhibitory concentration (IC50) in series [1] is more than 25 µM; in the series on U87MG glioblastoma cells it was 20.7 ± 1.2 µM; in the series on MCF7 breast cancer cells, more than 25 µM. Moreover, the “impact on the activity of CYP2D6” value on CYP2D6 was “strong effect at a concentration of 1 μM”. Besides, the “cardiotoxic effects (heart rate)” value in the series with Danio rerio is reported as “Neither compound displayed cardiotoxic effects”. This compound returned an antagonist equilibrium constant (Kb) on 5-HT1A (Table 3, unit inferred, cAMP, antagonist mode, 5-CT) of 0.074 µM. Also, the “function at 5-HT1A” value at 5-HT1A is on record as “antagonist”.
For the compound `CC1NC(NCCCCCCNS(=O)(=O)c2c(Cl)ccc3ccccc23)=Nc2ccccc21` (centres unmarked) [PP 13, 2-Chloro-N-{6-[(4-methyl-3,4-dihydroquinazolin-2-yl)amino]hexyl}naphthalene-1-sulfonamide], the “amount remaining after incubation with human plasma proteins (UPLC)” value in series [2] is reported as “COMPOUND NOT DETECTED”. The IC50 with U87MG glioblastoma cells worked out at 13.6 ± 1.1 µM; in the series with MCF7 breast cancer cells, 19.3 ± 0.3 µM. Further, the EC50 was determined as 1.54 µM on 5-HT1A (Table 3, unit inferred, cAMP) and 0.488 µM on 5-HT6. Further, at 5-HT1A, the “function at 5-HT1A” value is “agonist”.
`O=S(=O)(NCCCCCCNc1ncc2ccccc2n1)c1cccc2ccccc12` [PP 15, N-{6-[(Quinazolin-2-yl)amino]hexyl}naphthalene-1-sulfonamide]: the IC50 (in series [1]; in the series with U87MG glioblastoma cells; in the series on MCF7 breast cancer cells) was more than 25 µM each time. The “impact on the activity of CYP2D6” value at CYP2D6 is reported as “passive”. In the series on Danio rerio, the “cardiotoxic effects (heart rate)” value is listed as “Neither compound displayed cardiotoxic effects”.
Turning to `O=S1(=O)c2cccc3cccc(c23)N1CCCCCCNC1=Nc2ccccc2CN1` [PP 24, 3-{6-[(3,4-Dihydroquinazolin-2-yl)amino]hexyl}-2λ^6-thia-3-azatricyclo[6.3.1.0^4,^12]dodeca-1(11),4(12),5,7,9-pentaene-2,2-dione], the “amount remaining after incubation with human plasma proteins (UPLC)” value in series [2] was “COMPOUND NOT DETECTED”. Also, the values for the half-inhibitory concentration (IC50) with U87MG glioblastoma cells and with MCF7 breast cancer cells were 13.6 ± 0.6 µM and 15.7 ± 1.6 µM, respectively.
